# Test results as given in ChEMBL document CHEMBL4725365, “Modified tetra-oxygenated xanthones analogues as anti-MRSA and P. aeruginosa agent and their synergism with vancomycin” (2020).
# Active and inactive are the calls of the source. No cut-off for these calls is given here.
# Columns and labels:
# Staphylococcus aureus [1] = experiment: Antibacterial activity against methicillin-resistant Staphylococcus aureus ATCC 43300; format: functional
# Bacillus subtilis = experiment: Antibacterial activity against Bacillus subtilis; format: functional
# Enterococcus faecalis [2] = experiment: Antibacterial activity against Enterococcus faecalis TISTR 459; format: functional
# Enterococcus faecalis [3] = experiment: Antibacterial activity against vancomycin-resistant Enterococcus faecalis ATCC 51299; format: functional
# Salmonella typhi = experiment: Antibacterial activity against Salmonella typhi; format: functional, Salmonella enterica subsp. enterica serovar Typhi; details: Salmonella enterica
# Shigella sonnei = experiment: Antibacterial activity against Shigella sonnei; format: functional
# Pseudomonas aeruginosa [4] = experiment: Antibacterial activity against Pseudomonas aeruginosa; format: functional
# Staphylococcus aureus [5] = experiment: Induction of morphological changes in methicillin-resistant Staphylococcus aureus ATCC 43300 assessed as cell deformation incubated for 24 hrs by scanning electron microscopic method; format: functional, organism-based
# Pseudomonas aeruginosa [6] = experiment: Induction of morphological changes in Pseudomonas aeruginosa assessed as cell deformation incubated for 24 hrs by scanning electron microscopic method; format: functional, organism-based
# Staphylococcus aureus [7] = experiment: Synergistic antibacterial activity against methicillin-resistant Staphylococcus aureus ATCC 43300 in presence of vancomycin; format: functional
# Staphylococcus aureus [8] = experiment: Synergistic antibacterial activity against methicillin-resistant Staphylococcus aureus ATCC 43300 assessed as fractional inhibitory concentration index in presence of vancomycin; format: functional
# Pseudomonas aeruginosa [9] = experiment: Synergistic antibacterial activity against Pseudomonas aeruginosa in presence of vancomycin; format: functional
# Pseudomonas aeruginosa [10] = experiment: Synergistic antibacterial activity against Pseudomonas aeruginosa assessed as fractional inhibitory concentration index in presence of vancomycin; format: functional
Compound,MIC (Staphylococcus aureus [1]),MIC (Bacillus subtilis),MIC (Enterococcus faecalis [2]),MIC (Enterococcus faecalis [3]),MIC (Salmonella typhi),MIC (Shigella sonnei),MIC (Pseudomonas aeruginosa [4]),Activity (Staphylococcus aureus [5]),Activity (Pseudomonas aeruginosa [6]),MIC (Staphylococcus aureus [7]),fractional inhibitory concentration index (FICI) (Staphylococcus aureus [8]),MIC (Pseudomonas aeruginosa [9]),fractional inhibitory concentration index (FICI) (Pseudomonas aeruginosa [10])
COc1cc2oc3cc(OC)c(OC)c(CC=C(C)C)c3c(=O)c2c(O)c1CC=C(C)C,> 300 µg/mL,75 µg/mL,150 µg/mL,300 µg/mL,300 µg/mL,> 300 µg/mL,300 µg/mL,–,–,–,–,–,–
COc1c(O)cc2oc3cc(O)c4c(c3c(=O)c2c1CCC(C)(C)O)OC(C)(C)CC4,37.5 µg/mL,37.5 µg/mL,> 300 µg/mL,> 300 µg/mL,300 µg/mL,300 µg/mL,300 µg/mL,–,–,–,–,–,–
COc1cc2oc3cc(O)c(OC)c(CCC(C)C)c3c(=O)c2c(O)c1CCC(C)C,37.5 µg/mL,150 µg/mL,75 µg/mL,–,150 µg/mL,150 µg/mL,150 µg/mL,–,–,–,–,–,–
O=c1c2cc(O)c(O)cc2oc2cc(O)cc(O)c12,18.8 µg/mL,37.5 µg/mL,300 µg/mL,> 300 µg/mL,> 300 µg/mL,> 300 µg/mL,37.5 µg/mL,–,–,–,–,–,–
CN[C@H](CC(C)C)C(=O)N[C@H]1C(=O)N[C@@H](CC(N)=O)C(=O)N[C@H]2C(=O)N[C@H]3C(=O)N[C@H](C(=O)N[C@H](C(=O)O)c4cc(O)cc(O)c4-c4cc3ccc4O)[C@H](O)c3ccc(c(Cl)c3)Oc3cc2cc(c3O[C@@H]2O[C@H](CO)[C@@H](O)[C@H](O)[C@H]2O[C@H]2C[C@](C)(N)[C@H](O)[C@H](C)O2)Oc2ccc(cc2Cl)[C@H]1O [VANCOMYCIN],2.34 µg/mL,2.34 µg/mL,2.34 µg/mL,2.34 µg/mL,2.34 µg/mL,2.34 µg/mL,2.34 µg/mL,–,–,–,–,–,–
COc1c(O)cc2oc3cc(O)c(CC=C(C)C)c(O)c3c(=O)c2c1CC=C(C)C [MANGOSTIN],0.585 µg/mL,2.34 µg/mL,150 µg/mL,150 µg/mL,18.8 µg/mL,150 µg/mL,0.292 µg/mL,Active,Active,0.877 µg/mL,0.375,0.439 µg/mL,0.187
COc1cc2oc3cc(O)c(OC)c(CCC(C)(C)O)c3c(=O)c2c2c1CCC(C)(C)O2,150 µg/mL,150 µg/mL,> 300 µg/mL,> 300 µg/mL,300 µg/mL,300 µg/mL,300 µg/mL,–,–,–,–,–,–
COc1c(O)cc2oc3cc4c(c(O)c3c(=O)c2c1CC=C(C)C)CCC(C)(C)O4,1.17 µg/mL,2.34 µg/mL,> 300 µg/mL,> 300 µg/mL,300 µg/mL,300 µg/mL,2.34 µg/mL,Active,Active,1.75 µg/mL,0.75,2.63 µg/mL,0.375
COc1c(OCC=C(C)C)cc2oc3cc(OCC=C(C)C)c(CC=C(C)C)c(O)c3c(=O)c2c1CC=C(C)C,> 300 µg/mL,> 300 µg/mL,300 µg/mL,–,> 300 µg/mL,> 300 µg/mL,300 µg/mL,–,–,–,–,–,–
COc1cc2oc3cc(O)c(OC)c(CCC(C)(C)O)c3c(=O)c2c(O)c1CC=C(C)C,18.8 µg/mL,9.37 µg/mL,150 µg/mL,> 300 µg/mL,300 µg/mL,300 µg/mL,18.8 µg/mL,–,–,–,–,–,–
